# Test results: patent US7897593B2, “HIV integrase inhibitors” (priority 2006, dated 2011)
# Key:
# HIV-integrase = target: T1, HIV-integrase (Human immunodeficiency virus type 1 group M subtype B, UniProt P12497); assay: HIV-Integrase Inhibition Activity (SPA strand transfer assay); assay type: biochemical; conditions: recombinant integrase, SPA beads, P33 labeled target DNA
# T1 construct: Recombinant integrase (0.26 ng) was incubated with the beads
# Procedure: HIV-Integrase InhibitionActivity. To evaluate in-vitro activity against HIV-integrase, 5 pmole of biotin labeled substrate DNA was bound to 100 μg of Streptavidin coated PVT SPA beads (Amersham Pharmacia Biotech). Recombinant integrase (0.26 ng) was incubated with the beads for 90 min at 37° C. Unbound enzyme was removed by washing the complex followed by addition of inhibitors and 0.1 fmol of P33 labeled target DNA. The reaction was stopped by adding EDTA to a final concentration of 10 mM. Samples were counted in TopCountNXT (Packard) and the CPM was used as a measure of integration. The reaction condition was as described in A. Engelman and R. Craigie, J. Virol 69, 5908-5911 (1995). The sequences of substrate and target DNA were described in Nucleic Acid Research 22, 1121-1122 (1994). Activity equal to A refers to a compound having IC50=0.001 to 0.01 μM B=0.01-0.1, and C≧0.1 μM respectively.
# [1] = system: recombinant NL-Rluc virus; assay: Inhibition of HIV replication; assay type: cell-based; conditions: Human immunodeficiency virus 1, read-out: Antiviral Activity, NL-RLuc virus; three serum conditions described, the one tabulated is not stated
smiles,measurement,setting,value
CN(C)S(=O)(=O)N1CCC2(CC1)OCCn1c2nc(C(=O)NCc2ccc(F)cc2)c(O)c1=O [Example 2],IC50,HIV-integrase,1 to 10 nM
same,EC50,[1],1 to 10 nM
"CC(C)OC(=O)N1CCC2(C1)OCCn1c2nc(C(=O)NCc2ccc(F)cc2)c(O)c1=O (stereo not drawn) [Example 42, Isopropyl 2-(4-fluorobenzylcarbamoyl)-3-hydroxy-4-oxo-6,7-dihydro-4H-spiro[pyrimido[2,1-c][1,4]oxazine-9,3′-pyrrolidine]-1′-carboxylate]",IC50,HIV-integrase,1 to 10 nM
same,EC50,[1],1 to 10 nM
O=C(NCc1ccc(F)cc1)c1nc2n(c(=O)c1O)CCCCC21CCN(C(=O)OCc2ccccc2)CC1 [Example 56],IC50,HIV-integrase,10 to 100 nM
same,EC50,[1],10 to 100 nM
"CNC(=O)c1nc2n(c(=O)c1O)CCOC21CCN(S(=O)(=O)c2cc(F)ccc2C)CC1 [Example 25, 1-(5-Fluoro-2-methylphenylsulfonyl)-3′-hydroxy-N-methyl-4′-oxo-6′,7′-dihydro-4′H-spiro[piperidine-4,9′-pyrimido[2,1-c][1,4]oxazine]-2′-carboxamide]",IC50,HIV-integrase,≥ 100 nM
same,EC50,[1],> 100 nM
Cc1ccc(S(=O)(=O)N2CCC3(CC2)OCCn2c3nc(C(=O)NCc3ccc(F)cc3-n3ncnc3C)c(O)c2=O)cc1 [Example 16],IC50,HIV-integrase,10 to 100 nM
same,EC50,[1],1 to 10 nM
Cc1ccc(S(=O)(=O)N2CCC3(CC2)OCCn2c3nc(C(=O)NCc3ccc(F)cc3-n3nc(C)nc3C)c(O)c2=O)cc1 [Example 17],IC50,HIV-integrase,10 to 100 nM
same,EC50,[1],1 to 10 nM
Cc1ccc(S(=O)(=O)N2CCC3(CC2)OCCn2c3nc(C(=O)NCc3ccc(F)cc3)c(O)c2=O)cc1 [Example 12],IC50,HIV-integrase,10 to 100 nM
same,EC50,[1],1 to 10 nM
"Cc1ncnn1-c1cc(F)ccc1CNC(=O)c1nc2n(c(=O)c1O)CCOC21CCN(C(=O)OC(C)C)C1 (stereo not drawn) [Example 43, Isopropyl 2-(4-fluoro-2-(5-methyl-1H-1,2,4-triazol-1-yl)benzylcarbamoyl)-3-hydroxy-4-oxo-6,7-dihydro-4H-spiro[pyrimido[2,1-c][1,4]oxazine-9,3′-pyrrolidine]-1′-carboxylate]",IC50,HIV-integrase,10 to 100 nM
same,EC50,[1],10 to 100 nM
"Cc1ncnn1-c1cc(F)ccc1CNC(=O)c1nc2n(c(=O)c1O)CCOC21CCN(S(C)(=O)=O)C1 (stereo not drawn) [Example 39, N-(4-Fluoro-2-(5-methyl-1H-1,2,4-triazol-1-yl)benzyl)-3-hydroxy-1′-(methylsulfonyl)-4-oxo-6,7-dihydro-4H-spiro[pyrimido[2,1-c][1,4]oxazine-9,3′-pyrrolidine]-2-carboxamide]",IC50,HIV-integrase,10 to 100 nM
same,EC50,[1],10 to 100 nM
COC(=O)N1CCC2(CC1)OCCn1c2nc(C(=O)NCc2ccc(F)cc2)c(O)c1=O [Example 4],IC50,HIV-integrase,1 to 10 nM
same,EC50,[1],1 to 10 nM
"COC(=O)C(=O)N1CCC2(CC1)OCCn1c2nc(C(=O)NCc2ccc(F)cc2)c(O)c1=O [Example 28, Methyl 2-(2′-(4-fluorobenzylcarbamoyl)-3′-hydroxy-4′-oxo-6′,7′-dihydro-4′H-spiro[piperidine-4,9′-pyrimido[2,1-c][1,4]oxazine]-1-yl)-2-oxoacetate]",IC50,HIV-integrase,1 to 10 nM
same,EC50,[1],10 to 100 nM
Cc1ccc(F)cc1S(=O)(=O)N1CCC2(CC1)OCCn1c2nc(C(=O)NCc2ccc(F)cc2)c(O)c1=O [Example 18],IC50,HIV-integrase,1 to 10 nM
same,EC50,[1],1 to 10 nM
CS(=O)(=O)N1CCC2(CC1)OCCn1c2nc(C(=O)NCc2ccc(F)cc2)c(O)c1=O [Example 8],IC50,HIV-integrase,1 to 10 nM
same,EC50,[1],1 to 10 nM
O=C(NCc1ccc(F)cc1)c1nc2n(c(=O)c1O)CCOC21CCN(C(=O)OCc2ccccc2)CC1 [Example 22],IC50,HIV-integrase,1 to 10 nM
same,EC50,[1],1 to 10 nM
"Cc1ncn(-c2cc(F)ccc2CNC(=O)c2nc3n(c(=O)c2O)CCOC32CCN(C(=O)C(=O)N(C)C)CC2)n1 [Example 32, 1-(2-(Dimethylamino)-2-oxoacetyl)-N-(4-fluoro-2-(3-methyl-1H-1,2,4-triazol-1-yl)benzyl)-3′-hydroxy-4′-oxo-6′,7′-dihydro-4′H-spiro[piperidine-4,9′-pyrimido[2,1-c][1,4]oxazine]-2′-carboxamide]",IC50,HIV-integrase,10 to 100 nM
same,EC50,[1],> 100 nM
